Consider three compounds from patent US20170321282A1, “IMPROVED TREATMENTS OF CANCER RESISTANT TO TAXOIDS” (INSTITUT GUSTAVE ROUSSY, priority 2014, published 2017).

In assay [1] the test system is SHISA3 expression in IGR-CaP1 tumors. Put plainly: SHISA3 mRNA expression by quantitative PCR in docetaxel-sensitive xenograft tumors. The settings on record: docetaxel vs vehicle. It counts as in vivo, nude athymic mice. The text has this:
(§1) FIG. 1: Expression of SHISA3 in docetaxel-resistant prostate cancer cells and in other cancers A. Real-time qRT-PCR showing the inhibition of SHISA3 gene expression in docetaxel-resistant IGR-CaP1-R and PC3-R cells. B. Whole cell extracts of parental and drug-resistant cells were subjected to immunoblotting with antibodies specific for SHISA3 or β-actin (loading control). Arrows indicate specific bands corresponding to SHISA3, star indicates a non-specific band. C. […] D-E. SHISA3 mRNA was assessed by determining ΔCt in normal tissues and in several solid tumors. Results were normalized to the universal RNA included in each panel. In D, out of all the tested tissues for SHISA3 expression, only tissues with the highest expression were shown. In E, the bars represent the mean. P value was derived from the two-tailed Student's t test. F. Subcellular localization after transfection of SHISA3-Flag-GFP in HEK cells. Cells were analyzed by confocal microscopy. GFP stained the transfected cells, SHISA3 was labeled with anti-SHISA3 antibody (red) and nucleus was stained with Dapi. […] Secondary antibodies were used as followed: Alexa-568 for SHISA3 and Alexa-647 for Calnexin and GM130. G. SHISA3 mRNA expression was assessed in vivo on nude athymic mice models. […] SHISA3 expression has been obtained by quantitative PCR and normalized by its expression in a control sample of Universal RNA. […]

Assay [2] deals with SHISA3 expression in IGR-CaP1-R25 tumors. Put plainly: SHISA3 mRNA expression by quantitative PCR in docetaxel-resistant xenograft tumors. It is filed as in vivo, nude athymic mice. The note with it: docetaxel vs vehicle.
Text: as §1

In assay [3] the test system is parental IGR-CaP1 and PC3 cells. As to the kind of experiment: EMT induction by TGFβ1, immunoblot of SHISA3 and EMT markers. It counts as cell-based, human. The settings on record: 10 ng/ml TGFβ1, 5 days. The text has this:
A. Schematic structure of SHISA3 and SHISA3-Flag sharing a signal peptide (black box), an amino-terminal CRD (blue box), a predicted transmembrane segment (TM), and a carboxy-terminal proline-rich region (Grey box). The position of the FLAG tag (red box) is indicated. B. SHISA3 and endogenous TGFβR2 interaction. Cells extracts from IGR-CaP1, PC3 and HEK cells transfected with SHISA3-Flag were immunoprecipitated with anti-TGFβR2, anti-EGFR, anti-Flag antibodies or IgG as control and analyzed by immunoblot using anti-TGFβR2, anti-EGFR and anti-SHISA3 antibodies. Input represents 10% of the IP. C. Co-localization of SHISA3 and TGFβR2 in cytoplasmic granules and speckles at the membrane. Subcellular localizations of SHISA3 and TGFβR2 were analyzed by confocal microscopy after co-transfection of SHISA3-Flag and HA-TGFβR2 in HEK cells using anti-SHISA3 and anti-TGFβR2 primary antibodies, and Alexa-568- and Alexa-647-conjugated secondary antibodies respectively. Nuclei were labeled with Dapi. Overlapped fluorescent signals (yellow) indicated co-localized proteins. D. SHISA3 and EMT markers expression 5 days after cell treatment with TGFβ1. […] Quantification of bands relative to beta actin is shown.
2,5.10^4 IGR-CaP1 cells and 5.10^4 PC3 cells were plated in 6-well plates for 24 hours then transiently transfected with 10 nM synthetic siRNA targeting SHISA3 gene (Stealth RNAi™, siSHISA3-94: HSS152694, siSHISA3-95: HSS152695, and siSHISA3-96: HSS152696) using lipofectamine RNAiMax (Invitrogen) or treated with 10 ng/ml TGFβ1. After 36 hours, a second treatment was performed in order to maintain EMT induction over 5 days. Negative controls were obtained by treating cells with siRNA negative controls (siNT) (Invitrogen) or TGFβ1 vehicle. Whole cell extracts were prepared in RIPA buffer complemented with proteases inhibitors (Roche) and phosphatase inhibitors (Sigma).
Fifty μg of lysates were used for Western-Blot probed with specific antibodies: SHISA3 (Abgent), E-cadherin (BD Biosciences, clone 36), N-Cadherin (BD Biosciences, Clone 32), β-catenin (Santa Cruz, clone 12F7), Vimentin (BD Pharmingen, clone RV202), Occludin (Life Technologies, Clone OC-3F10), Plakoglobin (Sigma-Aldrich, Clone 15F11), Snail (Cell Signaling, Clone C15D3), ZEB1 (Cell Signaling, D80D), EGFR (Cell Signaling, Clone D38B1), TGFβR2 (Santa Cruz, Clone E-6), Ubiquitin (Santa Cruz, Clone P4D1), Flag (Sigma, M2). β-actin (Sigma-Aldrich, Clone AC-15) was used as a loading control. Immunoblot analyses were performed using the enhanced chemoluminescence-based detection kit (Pierce).

The next assay concerns parental IGR-CaP1 cells. Put plainly: Colony formation (clonogenicity) assay, parental cells. It is filed as cell-based, human. The note with it: 25 μM LY2157299 alone, 72 h pretreatment, stained 2 weeks later. As for the experimental part: (§2) Colony formation assay. Cells were pretreated with 25 μM LY2157299 or vehicle for 72 hours. Then, cells were treated with Docetaxel and/or 25 μM LY2157299, control cells were treated with vehicle. Docetaxel was used at 12 nM in parental IGR-CaP1 and 100 nM in resistant IGR-CaP1-R100. Cells were stained with Crystal Violet 2 weeks later. Data are represented as mean±SD. […] Representative cell colonies obtained in each condition is shown.
(§3) IGR-CaP1 and IGR-CaP1-R cells were plated in 6 well plates for 24 hours. Cells were pre-treated with 25 μM LY2157299 or vehicle for 72 hours, and then co-treated with LY2157299 and docetaxel (12 nM for parental cells, 100 nM for resistant cells). After 2 weeks, clones were methanol fixed and stained using Crystal violet (sigma). Clones were counted using ImageJ software.

Assay [4] deals with resistant IGR-CaP1-R100 cells. Put plainly: Colony formation (clonogenicity) assay, docetaxel-resistant cells. It is filed as cell-based, human. The settings on record: 25 μM LY2157299 alone, 72 h pretreatment, stained 2 weeks later. As for the experimental part: as §2, §3

`CC(=O)O[C@@]12CO[C@@H]1C[C@H](O)[C@@]1(C)C(=O)[C@H](O)C3=C(C)[C@@H](OC(=O)[C@H](O)[C@@H](NC(=O)OC(C)(C)C)c4ccccc4)C[C@@](O)([C@@H](OC(=O)c4ccccc4)[C@H]21)C3(C)C` [docetaxel]: the “SHISA3 gene expression in tumors” value in assay [1] is given as “strong decrease”; in assay [2] it was “did not affect its expression”.
Consider TGFβ: TGFβ1 purchased from R&D Systems, for which, in assay [3], the CDH1 expression entry is reported as “decrease”, the CDH2 expression result is “increase” and the VIM expression result was “increase”. In assay [3] (vs control cells), the SHISA3 expression entry is on record as “decrease”.
Regarding `Cc1cccc(-c2nn3c(c2-c2ccnc4ccc(C(N)=O)cc24)CCC3)n1` [LY2157299], the “survival of parental cells (colony formation)” value in the assay with parental IGR-CaP1 cells was “did not affect the survival”. Besides, in assay [4], the “survival of resistant cells (colony formation)” value is listed as “did not affect the survival”.
